What was measured:
Test in all cases: relative viability (nuclei count vs DMSO), 5 days (fraction); higher = more cells survive
[1] = system: LCLC-97TM1
Outline: (§1)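 Lung cancer cell lines were seeded in 1536-well plates and dosed by pin tool the next day, with either a single drug or a fixed anchor-drug dose combined with five library-drug doses (not always all listed) spaced in √10 steps. Five days later, one step fixed the cells and stained their nuclei (final 0.05% Triton X-100, 1% formaldehyde, 1 ug/ml Hoechst), and nuclei were counted on 4× images. Relative viability is the nuclei count in treated wells divided by the count in vehicle wells, and each value is the median of duplicate plates.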

[2] = system: H3255
Outline: as §1

[3] = system: NCI-H522
Outline: as §1

[4] = system: NCI-H3122
Outline: as §1

[5] = system: NCI-H441
Outline: as §1

[6] = system: EKVX
Outline: as §1

[7] = system: NCI-H1355
Outline: as §1

[8] = system: HOP-62
Outline: as §1

[9] = system: EPLC-272H
Outline: as §1

[10] = system: HCC-827
Outline: as §1

[11] = system: NCI-H1993
Outline: as §1

[12] = system: SW 1573
Outline: as §1

[13] = system: LU99A
Outline: as §1

[14] = system: NCI-H2405
Outline: as §1

[15] = system: NCI-H2170
Outline: as §1

[16] = system: LXF-289
Outline: as §1

[17] = system: SK-LU-1
Outline: as §1

[18] = system: NCI-H2228
Outline: as §1

[19] = system: PC-3 [JPC-3]
Outline: as §1

[20] = system: LK-2
Outline: as §1

[21] = system: ChaGo-K-1
Outline: as §1

[22] = system: UMC-11
Outline: as §1

[23] = system: NCI-H1650
Outline: as §1

Compound CN1CCN(CCOc2cc(OC3CCOCC3)c3c(Nc4c(Cl)ccc5c4OCO5)ncnc3c2)CC1 [Saracatinib] + CCNC(=O)c1noc(-c2cc(C(C)C)c(O)cc2O)c1-c1ccc(CN2CCOCC2)cc1 [Luminespib] (partner 0.01 µM) has a relative viability ([1]; first compound 0.02 µM) of 0.8, a relative viability ([1]; first compound 0.2 µM) of 0.47 and a relative viability ([1]; first compound 0.6325 µM) of 0.725. For the same compound, the relative viability ([1]; first compound 2 µM) was 0.444, the relative viability ([2]; first compound 0.02 µM) was 0.91 and the relative viability ([2]; first compound 0.2 µM) was 0.914. For the same compound, the relative viability ([2]; first compound 0.6325 µM) was 0.745, the relative viability ([2]; first compound 2 µM) was 0.477 and the relative viability ([3]; first compound 0.02 µM) was 1.13. It also gave a relative viability ([3]; first compound 0.2 µM) of 0.943, a relative viability ([3]; first compound 0.6325 µM) of 1.11 and a relative viability ([3]; first compound 2 µM) of 0.949. It also gave a relative viability ([4]; first compound 0.02 µM) of 0.0855, a relative viability ([4]; first compound 0.2 µM) of 0.103 and a relative viability ([4]; first compound 0.6325 µM) of 0.0549. For the same compound, the relative viability ([4]; first compound 2 µM) was 0.076, the relative viability ([5]; first compound 0.02 µM) was 0.44 and the relative viability ([5]; first compound 0.2 µM) was 0.268. For the same compound, the relative viability ([5]; first compound 0.6325 µM) was 0.286, the relative viability ([5]; first compound 2 µM) was 0.247 and the relative viability ([6]; first compound 0.02 µM) was 0.812. For the same compound, the relative viability ([6]; first compound 0.6325 µM) was 0.883, the relative viability ([6]; first compound 2 µM) was 0.532 and the relative viability ([7]; first compound 0.02 µM) was 0.732. For the same compound, the relative viability ([7]; first compound 0.2 µM) was 0.544, the relative viability ([7]; first compound 0.6325 µM) was 0.697 and the relative viability ([7]; first compound 2 µM) was 0.634. It also gave a relative viability ([8]; first compound 0.02 µM) of 0.864, a relative viability ([8]; first compound 0.2 µM) of 0.852 and a relative viability ([8]; first compound 0.6325 µM) of 1.04. For the same compound, the relative viability ([8]; first compound 2 µM) was 1.02, the relative viability ([9]; first compound 0.02 µM) was 0.24 and the relative viability ([9]; first compound 0.2 µM) was 0.382. For the same compound, the relative viability ([9]; first compound 0.6325 µM) was 0.123, the relative viability ([9]; first compound 2 µM) was 0.197 and the relative viability ([10]; first compound 0.02 µM) was 0.709. It also gave a relative viability ([10]; first compound 0.2 µM) of 0.311, a relative viability ([10]; first compound 0.6325 µM) of 0.241 and a relative viability ([10]; first compound 2 µM) of 0.136. It also gave a relative viability ([11]; first compound 0.02 µM) of 0.907, a relative viability ([11]; first compound 0.2 µM) of 0.716 and a relative viability ([11]; first compound 0.6325 µM) of 0.783. The relative viability ([11]; first compound 2 µM) was 0.561, the relative viability ([12]; first compound 0.02 µM) was 0.195 and the relative viability ([12]; first compound 0.2 µM) was 0.217. For the same compound, the relative viability ([12]; first compound 0.6325 µM) was 0.374, the relative viability ([12]; first compound 2 µM) was 0.15 and the relative viability ([13]; first compound 0.02 µM) was 0.214. For the same compound, the relative viability ([13]; first compound 0.2 µM) was 0.203, the relative viability ([13]; first compound 0.6325 µM) was 0.26 and the relative viability ([13]; first compound 2 µM) was 0.232. For the same compound, the relative viability ([14]; first compound 0.02 µM) was 0.588, the relative viability ([14]; first compound 0.2 µM) was 0.525 and the relative viability ([14]; first compound 0.6325 µM) was 0.519. The relative viability ([14]; first compound 2 µM) was 0.271, the relative viability ([15]; first compound 0.02 µM) was 0.658 and the relative viability ([15]; first compound 0.2 µM) was 0.596. It also gave a relative viability ([15]; first compound 0.6325 µM) of 0.477, a relative viability ([15]; first compound 2 µM) of 0.337 and a relative viability ([16]; first compound 0.02 µM) of 0.619. The relative viability ([16]; first compound 0.2 µM) was 0.633, the relative viability ([16]; first compound 0.6325 µM) was 0.796 and the relative viability ([16]; first compound 2 µM) was 0.585. For the same compound, the relative viability ([17]; first compound 0.02 µM) was 0.232, the relative viability ([17]; first compound 0.2 µM) was 0.139 and the relative viability ([17]; first compound 0.6325 µM) was 0.145. For the same compound, the relative viability ([17]; first compound 2 µM) was 0.129, the relative viability ([18]; first compound 0.02 µM) was 0.157 and the relative viability ([18]; first compound 0.2 µM) was 0.167. The relative viability ([18]; first compound 0.6325 µM) was 0.0897, the relative viability ([18]; first compound 2 µM) was 0.116 and the relative viability ([19]; first compound 0.02 µM) was 0.732. The relative viability ([19]; first compound 0.2 µM) was 0.655, the relative viability ([19]; first compound 0.6325 µM) was 0.675 and the relative viability ([19]; first compound 2 µM) was 0.537. It also gave a relative viability ([20]; first compound 0.02 µM) of 0.218, a relative viability ([20]; first compound 0.2 µM) of 0.209 and a relative viability ([20]; first compound 0.6325 µM) of 0.199. For the same compound, the relative viability ([20]; first compound 2 µM) was 0.186, the relative viability ([21]; first compound 0.02 µM) was 0.663 and the relative viability ([21]; first compound 0.2 µM) was 0.388. The relative viability ([21]; first compound 0.6325 µM) was 0.7, the relative viability ([21]; first compound 2 µM) was 0.555 and the relative viability ([22]; first compound 0.02 µM) was 0.96. The relative viability ([22]; first compound 0.6325 µM) was 0.863, the relative viability ([22]; first compound 2 µM) was 0.624 and the relative viability ([23]; first compound 0.02 µM) was 0.188. For the same compound, the relative viability ([23]; first compound 0.2 µM) was 0.187, the relative viability ([23]; first compound 0.6325 µM) was 0.188 and the relative viability ([23]; first compound 2 µM) was 0.221.

Source: the supplement of paper PMC10307832
